Like-named read-outs stand apart in the source and are kept apart here.
Key:
[1] = Pharmacokinetic study of IPA in rats after i.v. or oral administration (LC-MS/MS of plasma, noncompartmental analysis); format: in vivo, Sprague-Dawley rats; details: for AUC(0-inf) / MRT / half-life / AUC(0-t) / bioavailability / CL/F / Tmax / T max1: rat; for AUC(0-t): read-out: AUC(0~24); for bioavailability: oral, read-out: absolute bioavailability; for Tmax: read-out: T max 2; for C max1 / C max2: rat plasma; for C max1: n = 5
Protocol: Male Sprague-Dawley rats (220-250 g) from Shanghai Slac Laboratory Animal Co., Ltd. (Shanghai, China) (2018(hu)-08-0013) were housed in a climate-controlled facility (22 ± 2°C, 46 ± 20% relative humidity, 12 h light/dark cycle) with unlimited food and water access. After a 7-day acclimatization period, 20 rats were randomly assigned to undergo the administration of IPA via p.o. administration (50, 100, or 200 mg/kg) or via i.v. injection (5 mg/kg) for pharmacokinetic analyses. All animal studies received approval from the Animal Ethics Committee of the Naval Military Medical University. After developing and validating the above LC-MS/MS approach, it was employed to assess the pharmacokinetics of IPA following its intravenous or oral administration to rats as per the approved protocols discussed above. Briefly, after acclimatization, rats were fasted for 12 h and then randomized to undergo treatment with a 5 mg/kg i.v. dose of IPA or with oral IPA doses of 50, 100, or 200 mg/kg (n = 5/group). All IPA solutions were prepared in physiological saline and thoroughly mixed with CMC-Na. Blood samples (~0.4 mL) from these rats were collected in heparinized tubes at 0, 0.083, 0.167, 0.25, 0.5, 0.75, 1, 2, 3, 4, 6, 8, and 12 h following i.v. injection or at 0.167, 0.333, 0.5, 0.75, 1,1.5, 2, 4, 6, 8, 12, and 24 h following oral administration. Blood samples were spun for 5 min at 1,500 × g, after which plasma was collected and stored at -20°C prior to analysis. Plasma IPA concentrations were determined using the calibration curve established above based on peak area ratios from individual injection samples. The mean residence time (MRT0-t), area under the blood concentration-time curve (AUC0-∞, AUC0-t), body clearance (CL/F), and elimination half-life (T1/2) were quantified with the DAS 3.2.6 program (Chinese Pharmacology Society) via a noncompartmental approach. Concentration-time curves were used to establish maximum concentration (Cmax) and time to maximum concentration (Tmax) values. Data are given as means ± standard deviation (S.D.). Absolute bioavailability (F %) was determined as follows: F% = AUC0 − ∞(p.o.) dose (i.v.)/AUC0 − ∞(i.v.) dose (p.o.) × 100%.

[2] = Stability of IPA in rat plasma QC samples under storage conditions; format: in vitro ADME; details: for stability in rat plasma (in words): three QC concentrations; for Postpreparative, Measured: processed plasma sample; for Postpreparative, Measured / Long-term, Measured / Short-term, Measured / Three freeze-thaw, Measured: n = 5; for Long-term, Measured / Short-term, Measured / Three freeze-thaw, Measured: rat plasma
Protocol: IPA stability was examined by evaluating five replicate samples at the three QC concentration levels in a range of storage conditions. […] Processed sample stability was measured by incubating them for 24 h in the room temperature autosampler. In addition, long-term stability was measured following a 30-day storage period at -20°C, and freeze-thaw stability was measured by cycling samples from -20°C to 20°C three times. When the assay values associated with these samples were within a ±15% deviation from the nominal value, samples were considered to be stable.

[3] = male, Sprague-Dawley, plasma, iv, i.v. 5 mg/kg
[4] = male, Sprague-Dawley, plasma, po, p.o. 50 mg/kg
[5] = male, Sprague-Dawley, plasma, po, p.o. 100 mg/kg
[6] = male, Sprague-Dawley, plasma, po, p.o. 200 mg/kg

C=C[C@@]1(C)CC[C@H]2C(=CC[C@@H]3[C@]2(C)CCC[C@@]3(C)C(=O)O)C1 [IPA, isopimaric acid]
AUC(0-inf) [1, 3]: 818 ± 66.2 ng·h/mL | MRT [1, 3]: 1.4 ± 0.4 h | half-life [1, 3]: 6.6 ± 5.9 h | AUC(0-t) [1, 3]: 745 ± 140 ng·h/mL | bioavailability ([1]; male, Sprague-Dawley, plasma, p.o. 50 mg/kg vs i.v. 5 mg/kg): 11.9% | bioavailability ([1]; male, Sprague-Dawley, plasma, p.o. 100 mg/kg vs i.v. 5 mg/kg): 17.5% | AUC(0-inf) [1, 4]: 923 ± 614 ng·h/mL | MRT [1, 4]: 9.3 ± 1.3 h | half-life [1, 4]: 10.4 ± 9.8 h | AUC(0-t) [1, 4]: 887 ± 636 ng·h/mL | CL/F ([1]; male, Sprague-Dawley, plasma, po, p.o. 50 mg/kg, read-out: CL/F (converted)): 1170 mL/min/kg | Tmax [1, 4]: 6.4 ± 2.6 h | AUC(0-inf) [1, 5]: 2640 ± 1640 ng·h/mL | MRT [1, 5]: 7.6 ± 1.3 h | half-life [1, 5]: 5.5 ± 2.3 h | AUC(0-t) [1, 5]: 2600 ± 1630 ng·h/mL | CL/F ([1]; male, Sprague-Dawley, plasma, po, p.o. 100 mg/kg, read-out: CL/F (converted)): 983 mL/min/kg | Tmax [1, 5]: 6 ± 1.4 h | AUC(0-inf) [1, 6]: 3190 ± 1720 ng·h/mL | MRT [1, 6]: 7.9 ± 0.5 h | half-life [1, 6]: 3.6 ± 1 h | AUC(0-t) [1, 6]: 3180 ± 1720 ng·h/mL | CL/F ([1]; male, Sprague-Dawley, plasma, po, p.o. 200 mg/kg, read-out: CL/F (converted)): 1330 mL/min/kg | Tmax [1, 6]: 8.8 ± 1.1 h | C max1 ([1]; i.v. 5 mg/kg): 1740.1 ± 456.0 ng/mL | C max2 ([1]; p.o. 50 mg/kg): 61.6 ± 46.2 ng/mL | C max1 ([1]; p.o. 50 mg/kg): 83.7 ± 32.9 ng/mL | C max2 ([1]; p.o. 100 mg/kg): 284.9 ± 183.4 ng/mL | C max1 ([1]; p.o. 100 mg/kg): 296.4 ± 75.1 ng/mL | C max2 ([1]; p.o. 200 mg/kg): 286.9 ± 217.2 ng/mL | C max1 ([1]; p.o. 200 mg/kg): 246.23 ± 94.4 ng/mL | CL/F ([1]; i.v. 5 mg/kg): 6.1 ± 0.5 L/h | T max1 ([1]; i.v. 5 mg/kg): 0 ± 0 h | T max1 ([1]; p.o. 50 mg/kg): 0.9 ± 0.1 h | T max1 ([1]; p.o. 100 mg/kg): 0.6 ± 0.3 h | T max1 ([1]; p.o. 200 mg/kg): 0.65 ± 0.1 h | stability in rat plasma (in words) ([2]; 3 rounds of freeze-thawing): remained stable | stability in rat plasma (in words) ([2]; 3 h room temperature incubation): remained stable | stability in rat plasma (in words) ([2]; 30 days of storage at -20°C): remained stable | Postpreparative, Measured ([2]; spiked 10 ng·mL^−1, 24 h room temperature autosampler): 9.56 ± 0.88 ng/mL | Postpreparative, Measured ([2]; spiked 400 ng·mL^−1, 24 h room temperature autosampler): 371.2 ± 1.44 ng/mL | Postpreparative, Measured ([2]; spiked 2000 ng·mL^−1, 24 h room temperature autosampler): 2012 ± 0.12 ng/mL | Long-term, Measured ([2]; spiked 10 ng·mL^−1, 30 days at -20°C): 10.79 ± 1.46 ng/mL | Short-term, Measured ([2]; spiked 10 ng·mL^−1, room temperature): 9.65 ± 0.07 ng/mL | Three freeze-thaw, Measured ([2]; spiked 10 ng·mL^−1, three cycles -20°C to 20°C): 10.27 ± 0.56 ng/mL | Long-term, Measured ([2]; spiked 400 ng·mL^−1, 30 days at -20°C): 363.5 ± 1.82 ng/mL | Short-term, Measured ([2]; spiked 400 ng·mL^−1, room temperature): 407.0 ± 0.34 ng/mL | Three freeze-thaw, Measured ([2]; spiked 400 ng·mL^−1, three cycles -20°C to 20°C): 421.8 ± 1.08 ng/mL | Long-term, Measured ([2]; spiked 2000 ng·mL^−1, 30 days at -20°C): 1908.3 ± 0.92 ng/mL | Short-term, Measured ([2]; spiked 2000 ng·mL^−1, room temperature): 1840 ± 1.6 ng/mL | Three freeze-thaw, Measured ([2]; spiked 2000 ng·mL^−1, three cycles -20°C to 20°C): 1967 ± 0.34 ng/mL | postpreparation stability (in words) ([2]; room temperature for 24 h in the autosampler): remained stable
